Data taken from patent US20240165129A1, “METHODS OF TREATING PAIN AND DEPRESSION” (priority 2022, published 2024).
Substitutions are numbered along the chain they refer to. “Also recorded” adds a separate entry of the source.

Legend:
[1] = tested on: primary cultured mouse cortical neurons; assay: Acidosis-induced neuronal injury, FDA/PI staining; details: 1 and 10 μM, pH 6.0 for 1.5 h, 24 h
[2] = tested on: ASIC currents (ASIC1a-like) in cortical neurons; assay: Patch-clamp recording of ASIC (ASIC1a-like) currents in primary cultured mouse cortical neurons; type: cell-based
mice brain after MCAO = details: mouse, in vivo
homomeric ASIC1β = target: T1, homomeric ASIC1β (Rattus norvegicus, UniProt P55926); assay: Patch-clamp recording of ASIC1β currents in CHO cells with transient expression; details: 10 μM, pH drop 7.4 to 6.0, n=4-5
T1 sequence (P55926 1-559 isoform P55926-3): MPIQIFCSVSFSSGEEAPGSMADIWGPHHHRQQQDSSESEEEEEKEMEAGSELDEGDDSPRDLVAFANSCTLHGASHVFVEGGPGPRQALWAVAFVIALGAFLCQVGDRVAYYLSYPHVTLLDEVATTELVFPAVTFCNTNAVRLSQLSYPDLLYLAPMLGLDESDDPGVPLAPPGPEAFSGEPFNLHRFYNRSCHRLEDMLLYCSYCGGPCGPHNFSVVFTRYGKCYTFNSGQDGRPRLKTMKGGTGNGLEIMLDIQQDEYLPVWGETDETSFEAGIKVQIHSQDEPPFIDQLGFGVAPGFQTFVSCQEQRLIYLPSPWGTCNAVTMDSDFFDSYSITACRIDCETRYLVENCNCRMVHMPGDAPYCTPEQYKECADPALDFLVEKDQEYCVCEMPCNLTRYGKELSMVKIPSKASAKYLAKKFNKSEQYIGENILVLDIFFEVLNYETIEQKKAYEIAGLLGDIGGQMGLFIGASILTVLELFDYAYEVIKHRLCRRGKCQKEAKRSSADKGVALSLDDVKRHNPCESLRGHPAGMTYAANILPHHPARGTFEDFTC
Description: (§1) Chinese hamster ovary (CHO) cells were cultured in F12-K medium (Invitrogen) plus 10% fetal bovine serum, 50 units/nal penicillin, and 50 μg/m1 streptomycin. At ˜50% confluence, CHO cells were co-transfected with cDNAs for rat ASIC1β, ASIC2a, or ASIC3, and that for GFP. GFP-positive cells were used for electrophysiological recordings 24-72 h after transient transfection.
(§2) ASIC currents were recorded using patch-clamp techniques. Pipette solution contained (mM): 140 CsF, 1 CaCl2, 2 MgCl2, 11 EGTA, 2 tetraethylammonium chloride, 10 HEPES and 4 MgATP, pH 7.3 adjusted with CsOH, 290-300 mOsm. Extracellular Fluid (ECF) contained (mM): 140 NaCl, 5.4 KCl, 2 CaCl2, 1 MgCl2, 10 glucose, and 10 HEPES (320-330 mOsm). A multi-barrel perfusion system (SF-77 Warner Instruments, Hamden, CT) was used to obtain a rapid exchange of ECFs. Currents were recorded with Axopatch 200B amplifier, filtered at 2 kHz, and digitized at 5 kHz using Digidata 1332A. ASIC currents were induced by rapid perfusion of the cells with acidic ECF for 4 seconds. Unless otherwise stated, cells were clamped at a holding potential of −60 mV. […] Data were excluded for statistical analysis when access resistance was >10 MΩ or leak current was >100 pA.
(§3) Therefore, the study used pH 6.0 and 4.5 to activate ASIC1β and ASIC2a currents, respectively. […]

[3] = tested on: primary cultured mouse cortical neurons; details: pH 6.0, n=7-8
[4] = target: T2, heteromeric ASIC1a/2a channels (Mus musculus, UniProt Q6NXK8+Q925H0); assay: ASIC currents in cortical neurons in the presence of PcTx1 (heteromeric channels); details: Triol 10 μM
T2 sequence (Q6NXK8 1-526): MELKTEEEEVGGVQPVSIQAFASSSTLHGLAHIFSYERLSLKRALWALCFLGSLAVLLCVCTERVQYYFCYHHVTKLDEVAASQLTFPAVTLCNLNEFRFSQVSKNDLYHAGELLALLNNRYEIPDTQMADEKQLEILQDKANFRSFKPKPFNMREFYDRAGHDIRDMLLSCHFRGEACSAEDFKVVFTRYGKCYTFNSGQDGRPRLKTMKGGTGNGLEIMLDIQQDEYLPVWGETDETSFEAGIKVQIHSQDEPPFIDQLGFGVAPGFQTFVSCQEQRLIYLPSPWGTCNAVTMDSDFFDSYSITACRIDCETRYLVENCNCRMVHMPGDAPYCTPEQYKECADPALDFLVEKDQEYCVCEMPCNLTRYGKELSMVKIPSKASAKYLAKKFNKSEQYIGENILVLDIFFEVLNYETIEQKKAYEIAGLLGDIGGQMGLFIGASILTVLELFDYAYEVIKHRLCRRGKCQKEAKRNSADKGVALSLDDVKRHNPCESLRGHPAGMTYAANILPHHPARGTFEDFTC
T2 sequence (Q925H0 1-512): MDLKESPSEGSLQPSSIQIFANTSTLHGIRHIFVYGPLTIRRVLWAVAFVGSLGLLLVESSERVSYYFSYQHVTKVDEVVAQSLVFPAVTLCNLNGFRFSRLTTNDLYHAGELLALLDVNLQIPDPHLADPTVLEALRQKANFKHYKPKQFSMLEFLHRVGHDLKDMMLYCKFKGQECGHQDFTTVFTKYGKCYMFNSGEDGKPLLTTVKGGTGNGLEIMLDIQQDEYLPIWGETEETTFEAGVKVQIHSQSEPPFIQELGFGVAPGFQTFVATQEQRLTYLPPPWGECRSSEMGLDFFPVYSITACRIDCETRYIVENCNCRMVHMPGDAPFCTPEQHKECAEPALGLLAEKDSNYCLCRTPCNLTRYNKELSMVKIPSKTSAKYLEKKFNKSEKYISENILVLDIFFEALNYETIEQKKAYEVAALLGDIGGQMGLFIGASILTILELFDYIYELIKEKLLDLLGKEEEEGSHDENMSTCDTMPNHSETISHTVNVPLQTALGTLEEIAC
Description: Mouse cortical neurons were cultured. Pregnant Swiss mice were purchased from Charles River. The use of mice for neuronal cultures was approved by the Institutional Animal Care and Use Committee of Morehouse School of Medicine. Briefly, the brains of fetuses (embryonic day 16) were removed quickly from anesthetized pregnant mice and placed in cold Ca2+/Mg2+-free PBS. Cerebral cortices were dissected and incubated with 0.05% trypsin-EDTA for 10 min at 37° C., followed by trituration. Cells were plated in poly-L-ornithine-coated culture dishes. Cells were initially cultured in minimal essential medium (MEM) with 10% fetal bovine serum (FBS), 10% horse serum, and 25 mM glucose and maintained at 37° C. in a humidified 5% CO2 atmosphere incubator for 24 h. After that, the culture medium was completely replaced by Neurobasal medium supplemented with B-27 (Invitrogen) and then changed twice a week. Neurons were used for the experiments between days 10 and 14.
ASIC currents were recorded using patch-clamp techniques. Pipette solution contained (mM): 140 CsF, 1 CaCl2, 2 MgCl2, 11 EGTA, 2 tetraethylammonium chloride, 10 HEPES and 4 MgATP, pH 7.3 adjusted with CsOH, 290-300 mOsm. […] Currents were recorded with Axopatch 200B amplifier, filtered at 2 kHz, and digitized at 5 kHz using Digidata 1332A. […]

homomeric ASIC2a = target: T3, homomeric ASIC2a (Rattus norvegicus, UniProt Q62962); assay: Patch-clamp recording of ASIC2a currents in CHO cells with transient expression; details: 10 μM, pH drop 7.4 to 4.5, n=4-5
T3 sequence (Q62962 1-512): T2 sequence (Q925H0 1-512) with I444L
Description: as §1, §2, §3

[5] = 10 μM, before and after perfusion for 5 min

SMILES: CC(C)CCC[C@@H](C)[C@H]1CC[C@H]2[C@@H]3C[C@@H](O)[C@@]4(O)C[C@@H](O)CC[C@]4(C)[C@H]3CC[C@]12C [Triol, cholestane-3β, 5α, 6β-triol]
- death rate of cortical neurons (PI staining) [1]: decrease death rate
- survival rate of cortical neurons (FDA staining) [1]: increase survival rate
- effect on current-voltage relationship (IV) [2, 5]: does not affect the current-voltage relationship
- shift in the pH dose-response of ASIC peak currents [2, 5]: not a significant shift
- decrease of ASIC currents in cortical neurons ([2]; 10 μM, within 5 min of application/perfusion): ~40%
- reversibility of ASIC current inhibition in cortical neurons ([2]; after 30 min washout (data not shown)): irreversible
- voltage dependence of inhibitory activity ([2]; holding potential −60 mV vs −30 mV): no significant change in the inhibitory activity
- infarct volume, Triol in the presence of PcTx-1 (mice brain after MCAO): no additional reduction
- protection against ischemic brain injury (mice brain after MCAO): didn't show additional protection; also recorded: A similar result; also recorded: significant protection
- effect on ASIC1β currents (homomeric ASIC1β): no significant effect
- acid-induced cytotoxicity (LDH release) [3]: significantly decreased
- effect on remaining ASIC currents in the presence of PcTx1 ([4]; PcTx1 40 nM, PcTx-1 sensitive neurons, n=9): further inhibited
- effect on PcTx1 insensitive ASIC currents ([4]; PcTx-1 insensitive neurons (3 of 12 cells)): still inhibit these currents
- effect on ASIC2a currents (homomeric ASIC2a): no significant effect
